Where two headings read alike, the source gives them in different places.
Experiments:
[1] = tested on: primary human myelofibrosis samples; assay: Colony formation assay in primary myelofibrosis samples (Example 2); assay type: cell-based; details: for IC50: Homo sapiens
Protocol: (§1) Bone marrow or peripheral blood mononuclear cells from myelofibrosis (MF) patients were directly seeded in semisolid Methocult media (H3404) with Compound (I) alone, (at concentrations ranging from 1.25 to 10 nM) or in combination with Fed (at 100 and 300 nM) or Rux (at 30 and 100 nM). Treatment was added at the beginning and maintained throughout the 14-day incubation period without compound washout.
(§2) Colony forming unit (CFU) data acquisition and automatic colony counting were performed using the STEMvision device and software (StemCell Technologies, Vancouver, Canada). Counting corrections according to standard criteria were done manually by a trained user. GraphPad Prism 7 was used for data plotting and analysis.

[2] = tested on: cell models expressing mutationally active JAK2V617F or FLT3ITD; details: cited from earlier work
[3] = tested on: mouse models of JAK2V617F-driven myeloproliferative disease; details: in vivo; cited from earlier work
[4] = tested on: bone marrow CD34+ cells from healthy volunteers; assay: Colony-forming assay with normal hematopoietic progenitors (Example 2); assay type: cell-based; details: Homo sapiens, 336 h, healthy donors, 14 days
Protocol: as §1
To test the effects of Compound (I) on the functionality of normal hematopoietic progenitors, colony-forming assays were also done with bone marrow CD34^+ cells from healthy volunteers using the same conditions of treatment as described for MF samples.
as §2

[5] = First-in-human PK study of Compound (I) (Example 6); assay type: in vivo; details: for Cmax: Cycle 2 Day 5, 5 days on/2 days off, read-out: Cmax Cycle 2 Steady State (geometric mean)
Protocol: A first-in-human study was conducted on Compound (I) with select advanced tumors and hematologic malignancies. PK data was available from 65 subjects across 5 doses and 3 schedules. Intensive samples were collected on Cycle 1 Day 1 and Cycle 2 Day 5, Day 7, or Day 14 based on dosing schedule (5 days on/2 days off, 7 days on/14 days off, and 14 days on/7 days off).

[6] = tested on: SET-2 cells; assay: CellTiter Glo cell viability assay (Example 5); assay type: cell-based; details: for IC50: Homo sapiens
Protocol: (§3) Cells were seeded in 96-well plates at 10,000 cells per well in 100 μL of media containing either 0.1% DMSO or varying concentrations of drug. Cell viability was determined 3 days and 5 days later via the CellTiter GloLuminescent Cell Viability Assay from Promega (Madison, WI) according to the manufacturer's protocol. Specifically, 50 μL of reagent was added to each well and plates were incubated for 10 minutes in the dark to stabilize the luminescent signal. Luminescence was then detected using a chemiluminescence detection system (EnVision Multimode Microplate Reader; PerkinElmer).

[7] = tested on: HEL92.1.7 cells; assay: CellTiter Glo cell viability assay (Example 5); assay type: cell-based; details: for IC50: Homo sapiens
Protocol: as §3

[8] = tested on: SET-2 cells; assay: CellTiter-Glo proliferation/viability assay, single agent and JAKi combination (Example 1); assay type: cell-based; details: single agent
Protocol: (§4) HEL92.1.7 and SET-2 are post-MPN secondary acute myeloid leukemia (sAML) cell lines that harbor the JAK2 V617F mutation and serve as cell line models of the malignant clones driving disease in MPNs.
(§5) HEL92.1.792.1.7 (post-MPN sAML), a homozygous mutant (V617F), SET-2 (post-MPN sAML), a heterozygous mutant (V617F), were cultured in Roswell Park Memorial Institute (RPMI) 1640 medium (ATCC) supplemented with 10% or 20% fetal b ovine serum (FBS) (Corning) for HEL92.1.792.17 or SET-2 respectively, 2 mM L-glutamine (L-glu) (Gibco), and non-essential amino acid 1× (NEAA) cell culture supplement (Gibco). WI-38 primary lung fibroblastWI-38 were cultured in Eagle's Minimum Essential Medium (EMEM) (ATCC) with 10% FBS, 2 mM L-glu, and 1× NEAA.
(§6) CellTiter-Glo® (CTG), a luminescent dye that measures adenosine-5′-triphosphate (ATP), was used to quantify the cell proliferation in the 3 cell types in duplicate. Compound (I) was pre-spotted into 384-well plates (diluted in final dimethyl sulfoxide [DMSO] concentration of 0.1% for assay volume of 50 μL). A 10-point dose-response starting at […] with a 4-fold dilution that included one DMSO point and nine drug points was tested for each cell line. The JAK inhibitors (JAKi) Rux and Fed were also pre-spotted at concentrations of 0, 0.03, 0.1, 0.3, and 0.6 μM and HEL92.1.7 constant for each 10-point the Compound (I) dose-response curve (DRC) to produce five compounds of formula (I) DRCs for each JAKi in each cell line.
(§7) A cell suspension volume of 50 μL at their respective seeding densities was added to 384-well plates containing Compound (I) plus JAKi. The effect of Compound (I) single agent or JAKi combination on the proliferation/viability of cells was assessed after 3 days of incubation. Twenty-five microliters of CTG per well was then dispensed to the cell suspension, and ATP released by viable cells was measured after a 30-minute incubation as relative luminescence units (RLU) using an EnVision plate reader (PerkinElmer, Covina, CA). Cytotoxicity was indicated by a lower ATP level in the media after 3-day drug treatment compared to the Day 0 ATP level. Day 0 CTG was read for HEL92.1. and SET-2 suspension cell lines while the Day 0 CTG read for WI-38 could not be read because it is an adherent cell line.
(§8) Percent growth (% Growth) was calculated with the equation [% Growth=(Day 5 RLU—Day 0 RLU)/(Day 0 RLU)] while percent DMSO (% DMSO) was calculated with the equation [% DMSO=(Treatment RLU/DMSO RLU)×100]. All data was analyzed by GraphPad Prism 7 with the XY analyses nonlinear regression curve fit using the parameters for “log(inhibitor) vs. response—Variable slope (four parameters).” Cytotoxicity was called if any part of the DRC CTG signal went below the Day 0 CTG read and cytostatic effects were indicated by the DRC CTG signal staying above the Day 0 line.
(§9) Combination analysis was performed with software Combenefit version 2.021. Combination matrix plots describing additivity effects were generated with the Highest Single-Agent (HSA) model, combination matrix plots describing synergy effects were generated with the Bliss model, and the HSA and Bliss scores for each combination matrix plot were tabulated. An arbitrary cut off-of 10 for HSA and Bliss scores was used to reflect significant additivity and synergy, respectively. […]

[9] = tested on: HEL92.1.7 cells; assay: as above; assay type: cell-based; details: single agent; for IC50: 3 days incubation, CTG
Protocol: as §4, §5, §6, §7, §8, §9

[10] = 125 mg QD; clinical studies; cited from earlier work

## Cc1cnc(Nc2ccc(OCCN3CCCC3)cc2)nc1Nc1cccc(S(=O)(=O)NC(C)(C)C)c1 [fedratinib]
[1]; sample MF 18 (JAK2), fedratinib alone, read-out: IC50 FEDR
  IC50: 146 nM
[1]; sample MF 22 (WT), fedratinib alone, read-out: IC50 FEDR
  IC50: 309 nM
[1]; sample MF 29 (JAK2), fedratinib alone, read-out: IC50 FEDR
  IC50: 472 nM
[1]; sample MF 31 (CALR), fedratinib alone, read-out: IC50 FEDR
  IC50: 908 nM
[1]; sample MF 33 (CALR), fedratinib alone, read-out: IC50 FEDR
  IC50: 930 nM
[1]; sample MF 38 (WT), fedratinib alone, read-out: IC50 FEDR
  IC50: 931 nM
[1]; sample MF 54 (JAK2), fedratinib alone, read-out: IC50 FEDR
  IC50: 381 nM
[1]; sample MF 63 (CALR), fedratinib alone, read-out: IC50 FEDR
  IC50: 779 nM
[1]; sample MF 76 (JAK2), fedratinib alone, read-out: IC50 FEDR
  IC50: > 1000 nM
[1]; sample MF 77 (JAK2), fedratinib alone, read-out: IC50 FEDR
  IC50: 695 nM
[2]
  apoptotic cell death: induced
  cell proliferation: inhibited
  phosphorylation of STAT3 and STAT5 proteins: reduced
[3]
  phosphorylation of STAT3/5: blocked
  survival, WBC counts, hematocrit, splenomegaly, and fibrosis: improved

## Cc1nnn(C)c1-c1cnc2c3ccc(C(C)(C)O)cc3n([C@H](c3ccccc3)C3CCOCC3)c2c1 [Compound (I)]
[1]; 336 h, range among 10 primary human myelofibrosis samples, 14 days, read-out: IC50 values for inhibition of colonies
  IC50: 1.25 to 4.46 nM
[1]; 336 h, sample MF 18 (JAK2), single agent, colony formation 14 days, read-out: IC50 Compound (I)
  IC50: 1.58 nM
[1]; 336 h, sample MF 22 (WT), single agent, colony formation 14 days, read-out: IC50 Compound (I)
  IC50: 3.7 nM
[1]; 336 h, sample MF 29 (JAK2), single agent, colony formation 14 days, read-out: IC50 Compound (I)
  IC50: 2.56 nM
[1]; 336 h, sample MF 31 (CALR), single agent, colony formation 14 days, read-out: IC50 Compound (I)
  IC50: 2.02 nM
[1]; 336 h, sample MF 33 (CALR), single agent, colony formation 14 days, read-out: IC50 Compound (I)
  IC50: 4.46 nM
[1]; 336 h, sample MF 38 (WT), single agent, colony formation 14 days, read-out: IC50 Compound (I)
  IC50: 2.11 nM
[1]; 336 h, sample MF 54 (JAK2), single agent, colony formation 14 days, read-out: IC50 Compound (I)
  IC50: 1.25 nM
[1]; 336 h, sample MF 63 (CALR), single agent, colony formation 14 days, read-out: IC50 Compound (I)
  IC50: 2.6 nM
[1]; 336 h, sample MF 76 (JAK2), single agent, colony formation 14 days, read-out: IC50 Compound (I)
  IC50: 3.43 nM
[1]; 336 h, sample MF 77 (JAK2), single agent, colony formation 14 days, read-out: IC50 Compound (I)
  IC50: 1.27 nM
[1]; in 7 out of 10 MF samples, ratio of IC50 in MF sample and average IC50 in normal bone marrow CD34+ cells
  therapeutic index (TI): > 1 fold
[4]; read-out: IC50 for inhibition of BFU-E
  IC50: ~2.3 nM
[4]; CFU-GM, read-out: IC50 for inhibition of CFU-GM
  IC50: ~3 nM
[5]; dose 0.75 mg
  Cmax: 272 nM
[5]; dose 1.25 mg
  Cmax: 577 nM
[5]; dose 2.0 mg
  Cmax: 892 nM
[5]; human, in vivo, dose 3.0 mg
  Cmax: 1200 nM
[5]; human, in vivo, dose 4.5 mg
  Cmax: 1840 nM
[5]; in vivo, single dose, 5 days on/2 days off schedule, human, read-out: terminal half-life (converted)
  half-life: ~2.67 days
[6]; 72 h, Day 3, read-out: single agent IC50
  IC50: 2.8 nM
[6]; 120 h, Day 5, read-out: single agent IC50
  IC50: 2.4 nM
[6]; viability
  activity compared to CPI-0610: better activity
[7]; HEL 92.1.7, 72 h, Day 3, read-out: single agent IC50
  IC50: 15 nM
[7]; HEL 92.1.7, 120 h, Day 5, read-out: single agent IC50
  IC50: 19 nM
[7]; viability
  activity compared to CPI-0610: better activity
[8]; Homo sapiens, 72 h, 3 days incubation, CTG
  IC50: 1.9 nM
[8]; CTG signal vs Day 0
  cytotoxic vs cytostatic effect: cytotoxic effects
[9]; Homo sapiens, HEL 92.1.7, 72 h
  IC50: 6.2 nM
[9]
  IC50: 5.6 nM
[9]; CTG signal vs Day 0
  cytotoxic vs cytostatic effect: cytotoxic effects

## N#CC[C@H](C1CCCC1)n1cc(-c2ncnc3[nH]ccc23)cn1 [ruxolitinib]
[1]; sample MF 18 (JAK2), ruxolitinib alone, read-out: IC50 RUX
  IC50: 35.5 nM
[1]; sample MF 22 (WT), ruxolitinib alone, read-out: IC50 RUX
  IC50: 212 nM
[1]; sample MF 29 (JAK2), ruxolitinib alone, read-out: IC50 RUX
  IC50: 212 nM
[1]; sample MF 31 (CALR), ruxolitinib alone, read-out: IC50 RUX
  IC50: 284 nM
[1]; sample MF 33 (CALR), ruxolitinib alone, read-out: IC50 RUX
  IC50: 862 nM
[1]; sample MF 38 (WT), ruxolitinib alone, read-out: IC50 RUX
  IC50: 217 nM
[1]; sample MF 54 (JAK2), ruxolitinib alone, read-out: IC50 RUX
  IC50: 686 nM
[1]; sample MF 63 (CALR), ruxolitinib alone, read-out: IC50 RUX
  IC50: 70.6 nM
[1]; sample MF 76 (JAK2), ruxolitinib alone, read-out: IC50 RUX
  IC50: 686 nM
[1]; sample MF 77 (JAK2), ruxolitinib alone, read-out: IC50 RUX
  IC50: 528 nM

## Cc1noc2c1-c1ccccc1C(c1ccc(Cl)cc1)=N[C@H]2CC(N)=O [CPI-0610]
[10]
  Cmax: 4 µM
  T1/2: 16 h

— patent publication US12357621B2, “BET inhibitors as a treatment for myelofibrosis” (Impact Biomedicines, Inc., priority 2021, dated 2025)
